Like-named read-outs stand apart in the source and are kept apart here.
How the values were obtained:
Aap lectin domain = target: T1, Aap lectin domain (Staphylococcus epidermidis, UniProt Q5HKE8); experiment: ITC; type: binding; conditions: pH 7.2, 50 mM phosphate, 150 mM NaCl, 25 °C
T1 sequence (Q5HKE8 351-605): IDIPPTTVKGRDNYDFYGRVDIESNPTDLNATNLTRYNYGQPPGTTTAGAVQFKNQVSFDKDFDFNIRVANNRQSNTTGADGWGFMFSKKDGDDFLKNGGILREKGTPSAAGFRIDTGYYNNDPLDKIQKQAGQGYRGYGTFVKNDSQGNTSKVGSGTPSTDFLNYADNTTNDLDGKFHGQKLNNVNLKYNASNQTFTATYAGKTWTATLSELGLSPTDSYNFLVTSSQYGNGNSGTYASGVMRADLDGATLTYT

SasG lectin domain = target: T2, SasG lectin domain (Staphylococcus aureus, UniProt Q2G2B2); experiment: ITC; type: binding; conditions: pH 7.2, 50 mM phosphate, 150 mM NaCl, 25 °C
T2 sequence (Q2G2B2 163-419): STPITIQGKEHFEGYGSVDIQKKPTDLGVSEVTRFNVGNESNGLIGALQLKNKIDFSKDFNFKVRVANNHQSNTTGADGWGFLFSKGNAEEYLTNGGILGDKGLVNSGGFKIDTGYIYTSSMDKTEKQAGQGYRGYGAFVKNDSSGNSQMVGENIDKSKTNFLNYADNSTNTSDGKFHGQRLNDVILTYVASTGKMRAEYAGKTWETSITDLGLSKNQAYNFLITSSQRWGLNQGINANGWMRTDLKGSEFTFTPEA

Row | Kd (Aap lectin domain) | Kd (Aap lectin domain; read-out: affinity) | Compound | ITC (SasG lectin domain)
1 | 13 µM |  | CC(=O)N[C@H]1[C@H]([C@H](O)[C@H](O)CO)O[C@@](O[C@H]2[C@@H](O)[C@@H](CO)O[C@@H](O[C@H]3[C@H](O)[C@@H](NC(C)=O)C(O)O[C@@H]3CO)[C@@H]2O)(C(=O)O)C[C@@H]1O (stereo partly drawn) [3'-sialyl-N-acetyllactosamine] | 
2 |  | ~130 µM | CC(=O)N[C@H]1C(O)O[C@H](CO)[C@@H](O[C@@H]2O[C@H](CO)[C@H](O)[C@H](O)[C@H]2O)[C@@H]1O (stereo partly drawn) [N-acetyllactosamine] | We confirmed that SasG lectin is able to bind N-acetyllactosamine by ITC
